Measurements taken from the NIST ThermoML archive (doi:10.1016/j.jct.2018.12.039).

Assay: xn = mol fraction of the nth substance listed
Conditions: 100 kPa, Liquid; for speed of sound: Frequency=2 MHz, Linear variable-path acoustic interferometer; for mass density: Vibrating tube method

Cc1cccc(O)c1 [3-methylphenol] + CCO
Conditions	mass density, 303.15 K [kg/m3]	mass density, 308.15 K [kg/m3]	mass density, 313.15 K [kg/m3]	mass density, 318.15 K [kg/m3]	speed of sound, 303.15 K [m/s]	speed of sound, 313.15 K [m/s]
x2 = 0	1025.71	1021.7	1017.69	1013.65	1466.1	1436.1
x2 = 0.14	1005.48	1001.45	997.42	993.36	1426.7	1398.2
x2 = 0.2637	985.23	981.17	977.1	972.97	1384.7	1355
x2 = 0.3738	964.94	960.82	956.72	952.53	1344.9	1313.8
x2 = 0.4724	944.63	940.47	936.35	932.08	1308.5	1276.5
x2 = 0.5612	924.32	920.08	915.95	911.64	1275.8	1243.4
x2 = 0.6417	903.96	899.68	895.51	891.18	1246.6	1214
x2 = 0.7149	883.56	879.25	875.06	870.68	1220.5	1188
x2 = 0.7817	863.15	858.83	854.61	850.21	1197.2	1164.7
x2 = 0.8431	842.67	838.32	834.07	829.62	1176.3	1143.9
x2 = 0.8995	822.2	817.81	813.53	809.06	1157.8	1125.3
x2 = 0.9517	801.66	797.22	792.9	788.34	1141.4	1108.7

Cc1ccccc1O [2-methylphenol] + CCO
Conditions	mass density, 303.15 K [kg/m3]	mass density, 308.15 K [kg/m3]	mass density, 313.15 K [kg/m3]	mass density, 318.15 K [kg/m3]	speed of sound, 303.15 K [m/s]	speed of sound, 313.15 K [m/s]
x2 = 0	1037.02	1032.58	1028.19	1023.82	1488.1	1453
x2 = 0.1387	1015.95	1011.54	1007.18	1002.83	1435.4	1401.2
x2 = 0.2617	994.82	990.39	986.02	981.62	1391.2	1355.4
x2 = 0.3713	973.68	969.21	964.81	960.38	1351.2	1314.6
x2 = 0.4698	952.47	947.97	943.57	939.1	1314.2	1277.9
x2 = 0.5586	931.22	926.73	922.33	917.85	1280.2	1245
x2 = 0.6392	909.96	905.45	901.08	896.59	1249.3	1215.3
x2 = 0.7127	888.59	884.08	879.74	875.23	1221.5	1188.6
x2 = 0.7799	867.19	862.71	858.37	853.88	1196.9	1164.8
x2 = 0.8417	845.72	841.26	836.92	832.43	1175.2	1143.6
x2 = 0.8986	824.22	819.77	815.43	810.91	1156.5	1124.8
x2 = 0.951	802.69	798.22	793.89	789.33	1140.6	1108.4

Cc1ccc(O)cc1 [4-methylphenol] + CCO
Conditions	mass density, 303.15 K [kg/m3]	mass density, 308.15 K [kg/m3]	mass density, 313.15 K [kg/m3]	mass density, 318.15 K [kg/m3]	speed of sound, 303.15 K [m/s]	speed of sound, 313.15 K [m/s]
x2 = 0	1026.47	1022.56	1018.64	1014.68	1473	1440.2
x2 = 0.1392	1006.2	1002.27	998.32	994.31	1435.7	1402.3
x2 = 0.2624	985.93	981.96	977.97	973.9	1392.4	1359.7
x2 = 0.3722	965.59	961.62	957.61	953.46	1350.4	1318.2
x2 = 0.4707	945.23	941.23	937.2	932.96	1311.9	1280
x2 = 0.5595	924.86	920.83	916.75	912.45	1277.5	1245.8
x2 = 0.6401	904.44	900.38	896.25	891.89	1247	1215.1
x2 = 0.7134	883.97	879.86	875.69	871.3	1220.1	1188
x2 = 0.7805	863.47	859.3	855.09	850.66	1196.3	1164
x2 = 0.8421	842.93	838.68	834.45	829.99	1175.3	1142.8
x2 = 0.8989	822.33	818.01	813.74	809.25	1156.8	1124.1
x2 = 0.9514	801.71	797.31	793.01	788.43	1140.8	1107.9
